Data reported in patent publication US8754071B2 (priority 2011, dated 2014).

Each molecule was assayed against T1, c-kit (Homo sapiens, UniProt P10721) (assay: Mo7e cell proliferation assay (SCF dependent proliferation)). Details: Table 1; human Mo7e cells stimulated with SCF, 48 hours, CellTiter Glo; 1% FBS; read-out: c-kit (Mo7e).
T1 construct: human Mo7e cells which endogenously express c-kit; endogenous in cells; host or cells: human Mo7e cells (promegakaryocytic leukemia line), stimulated with human recombinant SCF
T1 sequence (P10721 26-976): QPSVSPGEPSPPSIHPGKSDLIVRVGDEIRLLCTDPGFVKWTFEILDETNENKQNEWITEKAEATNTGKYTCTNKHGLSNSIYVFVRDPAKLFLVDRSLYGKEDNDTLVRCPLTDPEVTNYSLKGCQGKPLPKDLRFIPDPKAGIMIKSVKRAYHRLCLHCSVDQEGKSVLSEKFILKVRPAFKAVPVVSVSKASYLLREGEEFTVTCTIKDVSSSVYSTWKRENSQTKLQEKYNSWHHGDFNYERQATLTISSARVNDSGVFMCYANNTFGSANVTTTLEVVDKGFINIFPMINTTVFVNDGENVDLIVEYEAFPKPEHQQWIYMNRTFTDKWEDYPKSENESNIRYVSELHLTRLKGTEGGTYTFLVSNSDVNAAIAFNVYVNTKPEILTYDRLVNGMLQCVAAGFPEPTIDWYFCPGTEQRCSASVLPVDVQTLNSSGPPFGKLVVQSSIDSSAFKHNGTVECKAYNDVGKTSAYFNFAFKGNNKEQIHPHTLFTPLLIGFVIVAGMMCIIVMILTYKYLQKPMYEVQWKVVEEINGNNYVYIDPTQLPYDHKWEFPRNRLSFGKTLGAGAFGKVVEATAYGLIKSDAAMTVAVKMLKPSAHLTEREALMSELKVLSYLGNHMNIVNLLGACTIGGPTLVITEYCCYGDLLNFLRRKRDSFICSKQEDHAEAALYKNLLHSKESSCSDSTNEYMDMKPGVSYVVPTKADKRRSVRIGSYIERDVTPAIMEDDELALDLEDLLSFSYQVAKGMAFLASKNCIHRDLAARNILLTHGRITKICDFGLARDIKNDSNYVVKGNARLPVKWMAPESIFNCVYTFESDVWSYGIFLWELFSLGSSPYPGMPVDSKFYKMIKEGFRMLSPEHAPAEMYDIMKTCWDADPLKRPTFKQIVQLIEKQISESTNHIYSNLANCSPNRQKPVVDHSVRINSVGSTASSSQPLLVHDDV
Format: cell-based
Procedure: Mo7e Cell Proliferation Assay The compounds of Table 1 and Table 2 were tested for inhibition of SCF dependent proliferation using human Mo7e cells which endogenously express c-kit in a 384 well format. […] After 48 hours of incubation at 37° C., cell viability was measured by adding 25 uL of CellTiter Glo (Promega) to the cells and the luminescence was measured by a […] camera (Molecular Devices). […] The IC50 value is given as that concentration of the test compound in question that provoke a response halfway between the baseline and maximum responses.
Molecule `Cc1ccc(-c2noc([C@@H]3CCN3S(=O)(=O)C(C)C)n2)cc1NC(=O)c1cnc2ccccn12` [F47] has an IC50 of 0.047 µM.
In the case of `Cc1ccc(-c2noc(C3CCOC3)n2)cc1NC(=O)c1cnc2ccccn12` (stereo not shown) [F7], the IC50 is reported as 0.078 µM.
With `Cc1ccc(-c2noc([C@H](C)N3CCC(F)(F)C3)n2)cc1NC(=O)c1cnc2ccccn12` [F51] the IC50 was 0.043 µM.
Molecule `Cc1ccc(-c2noc([C@@H]3CCN3S(C)(=O)=O)n2)cc1NC(=O)c1cnc2ccccn12` [F25] has an IC50 of 0.046 µM.
`CCS(=O)(=O)N1CC(c2nc(-c3ccc(C)c(NC(=O)c4cnc5ccccn45)c3)no2)C1` [F19] gave an IC50 of 0.033 µM.
`Cc1ccc(-c2nc(N3CCC(F)(F)CC3)no2)cc1NC(=O)c1cnc2ccccn12` [F4] was tested, and the IC50 was 0.035 µM.
`CCS(=O)(=O)N1CC(c2nc(-c3ccc(F)c(NC(=O)c4cnc5ccccn45)c3)no2)C1` [F28, N-(5-(5-(1-(ethylsulfonyl)azetidin-3-yl)-1,2,4-oxadiazol-3-yl)-2-fluorophenyl)imidazo[1,2-a]pyridine-3-carboxamide] showed an IC50 of 0.12 µM.
`COC(=O)N1CC(c2nc(-c3ccc(C)c(NC(=O)c4cnc5cc(-c6ccn(C)n6)ccn45)c3)no2)C1` [F56, methyl 3-(3-(4-methyl-3-(7-(1-methyl-1H-pyrazol-3-yl)imidazo[1,2-a]pyridine-3-carboxamido)phenyl)-1,2,4-oxadiazol-5-yl)azetidine-1-carboxylate] gave an IC50 of 0.006 µM.
For `CC(C)(C)OC(=O)N1CC(c2nc(-c3ccc(F)c(NC(=O)c4cnc5ccccn45)c3)no2)C1` [F27, tert-butyl 3-(3-(4-fluoro-3-(imidazo[1,2-a]pyridine-3-carboxamido)phenyl)-1,2,4-oxadiazol-5-yl)azetidine-1-carboxylate], the IC50 was 0.997 µM.
Work on `Cc1ccc(-c2noc([C@H]3CN(S(C)(=O)=O)CCO3)n2)cc1NC(=O)c1cnc2ccccn12` [F37] yielded an IC50 of 0.06 µM.
For `COC(=O)N1CCC(c2nc(-c3ccc(C)c(NC(=O)c4cnc5ccccn45)c3)no2)CC1` [F33], the IC50 was 0.084 µM.
Work on `COC(=O)N1CC(c2nc(-c3ccc(C)c(NC(=O)c4cnc5ccc(COCC(F)F)cn45)c3)no2)C1` [F95, methyl 3-(3-(3-(6-((2,2-difluoroethoxy)methyl)imidazo[1,2-a]pyridine-3-carboxamido)-4-methylphenyl)-1,2,4-oxadiazol-5-yl)azetidine-1-carboxylate] yielded an IC50 of 0.019 µM.
`CCCS(=O)(=O)N1CC(c2nc(-c3ccc(C)c(NC(=O)c4cnc5ccccn45)c3)no2)C1` [F16] was tested, and the IC50 was 0.035 µM.
Work on `Cc1ccn2c(C(=O)Nc3cc(-c4noc(N5CC(C)(O)C5)n4)ccc3C)cnc2c1` [F88] yielded an IC50 of 0.062 µM.
Molecule `Cc1ccc2ncc(C(=O)Nc3cc(-c4noc(N5CC(O)(C(F)(F)F)C5)n4)ccc3C)n2c1` [F6] has an IC50 of 0.026 µM.
`Cc1ccn2c(C(=O)Nc3cc(-c4noc(N5CCC(F)(F)CC5)n4)ccc3C)cnc2c1` [F89] showed an IC50 of 0.031 µM.
`Cc1ccc(-c2noc(N3CC(F)(F)C3)n2)cc1NC(=O)c1cnc2ccccn12` [F78] showed an IC50 of 0.055 µM.
Molecule `Cc1nc(C)c(-c2ccc3ncc(C(=O)Nc4cc(-c5noc(CN6CC(C#N)C6)n5)ccc4C)n3c2)s1` [F99] has an IC50 of 0.049 µM.

Same assay, conditions: Table 2; human Mo7e cells stimulated with SCF, 48 hours, CellTiter Glo; 1% FBS; read-out: c-kit (Mo7e)
With `COC(=O)N1CC(F)(F)C[C@H]1c1nc(-c2ccc(C)c(NC(=O)c3cnc4ccccn34)c2)no1` [F172] the IC50 was 0.122 µM.
`COC(=O)N1CC(c2nc(-c3ccc(C)c(NC(=O)c4cnc5ccc(C(C)(C)O)cn45)c3)no2)C1` [F246] was tested, and the IC50 was 0.317 µM.
Molecule `Cc1ccc(-c2noc(C[C@H]3CCNC3)n2)cc1NC(=O)c1cnc2ccccn12` [F284] has an IC50 of 1.65 µM.
`CC(C)(C)OC(=O)N1CC(c2nc(-c3ccc(F)c(NC(=O)c4cnc5ccccn45)c3)no2)C1` [F153] was tested, and the IC50 was 0.997 µM.
For `Cc1ccc(-c2noc([C@H]3C[C@@H](O)CN3)n2)cc1NC(=O)c1cnc2ccc(F)cn12` [F302], the IC50 was 4.33 µM.
`CS(=O)(=O)N1CC(c2nc(-c3ccc(F)c(NC(=O)c4cnc5ccccn45)c3)no2)C1` [F154] was tested, and the IC50 was 0.472 µM.
`COC(=O)N1CCOC[C@H]1c1nc(-c2ccc(C)c(NC(=O)c3cnc4ccccn34)c2)no1` [F164] gave an IC50 of 0.269 µM.
In the case of `Cc1ccc(-c2noc(C[C@@H]3CCCN3)n2)cc1NC(=O)c1cnc2ccccn12` [F216], the IC50 is reported as 0.519 µM.
For `COCCCN1CC(c2nc(-c3ccc(C)c(NC(=O)c4cnc5ccccn45)c3)no2)C1` [F225], the IC50 was 0.239 µM.
Work on `Cc1ccc(-c2noc(C3CN(C(=O)C(F)(F)F)C3)n2)cc1NC(=O)c1cnc2ccccn12` [F230] yielded an IC50 of 0.217 µM.
In the case of `Cc1ccc(-c2noc(CN3CCOC3=O)n2)cc1NC(=O)c1cnc2ccccn12` [F142], the IC50 is reported as 0.578 µM.
`Cc1ccc(-c2noc(C3CN(S(=O)(=O)c4cnn(C)c4)C3)n2)cc1NC(=O)c1cnc2ccccn12` [F217] was tested, and the IC50 was 0.173 µM.
Work on `CC(=O)N1CC[C@H]1c1nc(-c2ccc(C)c(NC(=O)c3cnc4ccccn34)c2)no1` [F152] yielded an IC50 of 0.738 µM.
`Cc1ccc(-c2noc(C3CN(S(=O)(=O)c4cn[nH]c4)C3)n2)cc1NC(=O)c1cnc2ccccn12` [F218] was tested, and the IC50 was 0.155 µM.
For `COCc1n[nH]c(-c2ccc3ncc(C(=O)Nc4cc(-c5noc(C6CN(C(=O)OC)C6)n5)ccc4C)n3c2)n1` [F253], the IC50 was 0.215 µM.
In the case of `CCCCS(=O)(=O)N1CC(c2nc(-c3ccc(F)c(NC(=O)c4cnc5ccccn45)c3)no2)C1` [F219], the IC50 is reported as 0.158 µM.
For `Cc1ccc(-c2noc(C3(NC(=O)OC(C)(C)C)COC3)n2)cc1NC(=O)c1cnc2ccccn12` [F139], the IC50 was 0.139 µM.
With `Cc1ccc(-c2noc(C3CN(S(=O)(=O)c4ccn(C)n4)C3)n2)cc1NC(=O)c1cnc2ccccn12` [F158] the IC50 was 0.527 µM.
`Cc1ccc(-c2noc([C@@H]3CNCCO3)n2)cc1NC(=O)c1cnc2ccccn12` [F123] showed an IC50 of 0.527 µM.
`O=C(Nc1cc(-c2noc(C3CN(S(=O)(=O)c4cccnc4)C3)n2)ccc1F)c1cnc2ccccn12` [F220] gave an IC50 of 0.69 µM.
`Cc1ccc2ncc(C(=O)Nc3cc(-c4noc([C@@H]5CCN5)n4)ccc3C)n2c1` [F280] showed an IC50 of 1.31 µM.
In the case of `Cn1cc(S(=O)(=O)N2CC(c3nc(-c4ccc(F)c(NC(=O)c5cnc6ccccn56)c4)no3)C2)cn1` [F224], the IC50 is reported as 0.854 µM.
`COC(=O)N1CC(c2nc(-c3ccc(C)c(NC(=O)c4cnc5ccc(CCC(=O)O)cn45)c3)no2)C1` [F307] was tested, and the IC50 was > 10 µM.
`Cc1ccc(-c2noc(C3CCCCN3)n2)cc1NC(=O)c1cnc2ccccn12` (stereo not shown) [F109] gave an IC50 of 0.215 µM.
For `O=C(Nc1cc(-c2noc(CN3CC(F)(F)C3)n2)ccc1F)c1cnc2ccccn12` [F228], the IC50 was 0.341 µM.
`CC(=O)N1CC(F)(F)C[C@H]1c1nc(-c2ccc(C)c(NC(=O)c3cnc4ccccn34)c2)no1` [F173] gave an IC50 of 0.212 µM.
`Cc1ccc(-c2nc(N3CC4(COC4)C3)no2)cc1NC(=O)c1cnc2ccccn12` [F294] gave an IC50 of 2.2 µM.
With `Cc1ccc(-c2noc(CCC(=O)N3CCN(C)CC3)n2)cc1NC(=O)c1cnc2ccccn12` [F303] the IC50 was 4.64 µM.
Molecule `Cc1ccc(-c2noc([C@H]3CCCN(S(C)(=O)=O)C3)n2)cc1NC(=O)c1cnc2ccccn12` [F209] has an IC50 of 0.148 µM.
For `COC(=O)N1CCO[C@@H](c2nc(-c3ccc(C)c(NC(=O)c4cnc5ccccn45)c3)no2)C1` [F198], the IC50 was 0.142 µM.
For `COC(=O)N1CCOC[C@@H]1c1nc(-c2ccc(C)c(NC(=O)c3cnc4ccccn34)c2)no1` [F166], the IC50 was 0.163 µM.
`Cc1ccc(-c2noc(C3CN(S(=O)(=O)c4c[nH]cn4)C3)n2)cc1NC(=O)c1cnc2ccccn12` [F299] was tested, and the IC50 was 3.52 µM.
Molecule `COC(=O)N1CCC[C@@H](c2nc(-c3ccc(C)c(NC(=O)c4cnc5ccccn45)c3)no2)C1` [F207] has an IC50 of 0.141 µM.
`COC(=O)N1CC(c2nc(-c3ccc(C)c(NC(=O)c4cnc5ccccn45)c3C)no2)C1` [F249] showed an IC50 of 0.426 µM.
`COC(=O)N1CC(Cc2nc(-c3ccc(C)c(NC(=O)c4cnc5ccccn45)c3)no2)C1` [F177] gave an IC50 of 0.398 µM.
In the case of `COC(=O)N1CCC(c2nc(-c3ccc(C)c(NC(=O)c4cnc5ccccn45)c3)no2)C1` (stereo not shown) [F169], the IC50 is reported as 0.132 µM.
`Cc1ccc(-c2noc(C3CN(C(=O)OC(C)(C)C)CCO3)n2)cc1NC(=O)c1cnc2ccccn12` (stereo not shown) [F277] was tested, and the IC50 was 1.25 µM.
`Cc1ccc(-c2noc(C3CCO3)n2)cc1NC(=O)c1cnc2ccccn12` (stereo not shown) [F263] showed an IC50 of 0.35 µM.
`Cc1ccc(-c2noc(CNC(=O)[C@@H]3CCCO3)n2)cc1NC(=O)c1cnc2ccccn12` [F147] gave an IC50 of 0.232 µM.
`COC(=O)N1CCC[C@H]1c1nc(-c2ccc(C)c(NC(=O)c3cnc4ccccn34)c2)no1` [F196] showed an IC50 of 0.475 µM.
In the case of `Cc1ccc(-c2noc(C3CCN(C(=O)OC(C)(C)C)CC3)n2)cc1NC(=O)c1cnc2ccccn12` [F105], the IC50 is reported as 0.505 µM.
`Cc1ccc(-c2noc(CNC(=O)N3CCOCC3)n2)cc1NC(=O)c1cnc2ccccn12` [F292] was tested, and the IC50 was 1.93 µM.
`Cc1ccc(-c2nc(N3CC(C)(O)C3)no2)cc1NC(=O)c1cnc2ccccn12` [F251] showed an IC50 of 0.157 µM.
Work on `Cc1ccc(-c2noc(C3CN(C(=O)OC(C)(C)C)C3)n2)cc1NC(=O)c1cnc2ccccn12` [F113] yielded an IC50 of 0.623 µM.
`Cc1ccc(-c2noc(C3CCCCN3C)n2)cc1NC(=O)c1cnc2ccccn12` (stereo not shown) [F111] showed an IC50 of 0.243 µM.
With `COC(=O)CS(=O)(=O)N1CC(c2nc(-c3ccc(C)c(NC(=O)c4cnc5ccccn45)c3)no2)C1` [F309] the IC50 was > 10 µM.

Same assay, conditions: Table 2; values marked *: 20% FBS instead of 1% FBS; read-out: c-kit (Mo7e)
`Cc1ccc(-c2noc(C3CCCCN3S(C)(=O)=O)n2)cc1NC(=O)c1cnc2ccccn12` (stereo not shown) [F110] showed an IC50 of 0.227 µM.

Same assay, conditions: c-kit (Mo7e) μM, Table 1; human Mo7e cells stimulated with SCF, 48 hours, CellTiter Glo; 1% FBS
With `Cc1ccc(-c2noc([C@@H]3CCC(F)(F)CO3)n2)cc1NC(=O)c1cnc2ccccn12` [F11] the IC50 was 0.023 µM.
`Cc1ccc(-c2noc(C3CCC(F)(F)CO3)n2)cc1NC(=O)c1cnc2ccccn12` (stereo not shown) [F10, N-(5-(5-(5,5-difluorotetrahydro-2H-pyran-2-yl)-1,2,4-oxadiazol-3-yl)-2-methylphenyl)imidazo[1,2-a]pyridine-3-carboxamide] was tested, and the IC50 was 0.023 µM.
